Assay results reported in patent publication US8470755B1, “Liquid cleaning and disinfecting compositions comprising a zinc inorganic salt” (The Procter & Gamble Company, priority 2012, dated 2013).

How the values were obtained:
Assay type in all cases: cell-based
[1] = system: Staphylococcus aureus (SA) CIP 4.83; assay: ASTM E2149 shake flask method, antibacterial log reduction, St. aureus; settings: log(T0/T1h), 1 hour
Description: (§1) The antibacterial efficacy was tested following the below Shake Flask protocol:
(§2) • Microbial strains: Staphylococcus aureus (SA) CIP 4.83, Escherichia Coli (EC) CIP 53.126, Pseudomonas Aeruginosa (PA) CIP 82.113 • Culture media: TSA medium-Neutralizing medium (Dey Engley Broth)-Buffered Peptoned water (BPW-F)-Shake flask bottles-Physiological water • Incubator Shake Flask Protocol: ASTM E2149 Shake Flask Method • Inoculum counting: • For each strain, prepare an inoculum at 0.5 Mc Farland (McF). Dilute 1 ml of the inoculum with 9 ml of physiological water. Select 1 ml of the resulting dilution and dilute again with 9 ml of physiological water. Execute 5 dilution steps accordingly so that a 10^−5 dilution is obtained. • Recover 100 microliter of the 10^−5 dilution and inoculate 2 petri dishes. • Add 20 ml of TSA medium. • Incubate at 32+/−0.5° C. during 24 hours • Negative control: • Put 5 ml of SA, EC or PA inoculums into a shake flask. Add 45 ml of pure BPW-F solution. • Dilute twice in neutralizing medium: Recover 1 ml of the pure solution and add 9 ml of the neutralizing medium (=10^−1 and 10^−2 dilution). • Wait 5 minutes and put 100 microliter of the pure solution and the 10^−2 dilution into 2 petri dishes, add 20 ml of TSA medium (T0). • Do the same operation after 1 hour (T1h). • Incubate at 32+/−0.5° C. during 24 hours • Sample testing: • Prepare a solution at a specified concentration (see data tables for actual concentrations as 100% active—final volume 50 ml). For example, for a 50% (V/V), dilute 25 ml of product with 20 ml of BPW-F and 5 ml of the inoculums (SA, EC or PA) at 0.5 McF. • Dilute twice in neutralizing medium: Recover 1 ml of the pure solution and add 9 ml of the neutralizing medium (=10^−1 and 10^−2 dilution). • Wait 5 minutes and put 100 microliter of the pure solution and the 10^−2 dilution into 2 petri dishes, add 20 ml of TSA medium (T0). • Do the same operation after 1 hour (T1h). • Incubate at 32+/−0.5° C. during 24 hours • Calculation of log reduction: • The log reduction is calculated as log(T0/T1h)

[2] = system: Escherichia Coli (EC) CIP 53.126; assay: ASTM E2149 shake flask method, antibacterial log reduction, E. coli; settings: log(T0/T1h), 1 hour
Description: as §1, §2

[3] = system: Pseudomonas Aeruginosa (PA) CIP 82.113; assay: ASTM E2149 shake flask method, antibacterial log reduction, Ps. aeruginosa; settings: Ps Aeroginosa; tested active concentration 10%; log(T0/T1h), 1 hour
Description: as §1, §2

[4] = St. Aureus, tested active concentration 0.1%
[5] = tested active concentration 0.1%

| Compound | Log reduction (tested active concentration) [1, 4] | Log reduction (tested active concentration) [2, 5] | Log reduction (tested active concentration) [3] | Log reduction (tested active concentration) ([1]; St Aureus, tested active concentration 1%) | Log reduction (tested active concentration) ([2]; tested active concentration 1%) |
| --- | --- | --- | --- | --- | --- |
| linear C12-14 alkyl dimethyl amine oxide [Linear AO] | 0.73 (0.1%) | 0.41 (0.1%) | 2.10 (10%) |  |  |
| methyl branched dimethyl amine oxide [Shell type 1 Branched AO ( N terminal)] | 4.06 (0.1%) |  | 3.98 (10%) |  |  |
| O=C([O-])[O-].[Zn+2] [Zn2+, zinc carbonate] | 0.18 (0.1%) | 0.17 (0.1%) | 0.27 (10%) |  |  |
| CCCCCCCCCCCC(=O)NCCC[N+](C)(C)[O-] [CAP AO, cocoamidopropyl dimethyl amine oxide] |  |  | 1.3 (10%) | 0.88 (1%) | 0.37 (1%) |
